According to patent publication EP0505640B2, “Improved therapeutic method” (ELI LILLY AND COMPANY, priority 1991, dated 1992):
Read-outs that look alike come from different tables or passages of the source. Blank lines part the entries; values can stand above or below the molecule they belong to.

Key:
[1] = target: bovine FBP (Bos taurus, UniProt P02702); test: Folate binding constant, procedure of Dunn and Foster
Experimental: As noted above, the drug products which can be employed in the present invention include other GAR-transformylase or TS inhibitors which are capable of binding to folate binding protein. Folic acid itself has a binding constant (ng/ml) of 1.8, and lometrexol has a binding constant of 9.7 to bovine FBP. Any GAR-transformylase or TS inhibitor that binds at less than about 500 ng/ml can be utilized in the method of this invention. The folate binding constant for drug products can be readily determined by the general procedure of Dunn and Foster, Clin. Chem., 19 (10), 1101-1105 (1973).

[2] = test system: C3H Mice; test: Toxicity measured as death of tumor-bearing C3H mice; assay type: in vivo
Experimental: (§1) In one such test, mice are inoculated with the C3H strain of mammary adenocarcinoma by inserting a 2 mm by 2 mm section of tumor into the axillary region of the mice by trocar. In all experiments, lometrexol was administered intraperitoneally once a day for five consecutive days, starting on the day following tumor implantation. Ten animals were used at each dosage level. Antitumor activity was assessed on day ten by measuring the length and width of the tumor growth using vernier calipers, and the activity was expressed as a percent inhibition of tumor growth.

[3] = test system: nasalpharyngeal carcinoma; details: one subject with nasalpharyngeal carcinoma, folic acid 0.5 to 1.0 mg/day, after the 12 months of therapy
[4] = test system: C3H strain of mammary adenocarcinoma; test: Antitumor activity against implanted C3H mammary adenocarcinoma in mice; assay type: in vivo
Experimental: as §1

[5] = read-out: Binding Constant, folate binding protein

bovine FBP, sequence (P02702 20-234): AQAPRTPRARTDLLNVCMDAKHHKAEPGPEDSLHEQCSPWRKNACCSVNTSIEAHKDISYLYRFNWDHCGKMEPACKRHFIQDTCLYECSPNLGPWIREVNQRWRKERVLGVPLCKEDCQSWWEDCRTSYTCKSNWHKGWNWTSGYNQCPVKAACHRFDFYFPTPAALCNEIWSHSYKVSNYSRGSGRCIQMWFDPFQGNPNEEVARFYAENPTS

SMILES: Nc1nc(O)c2c(n1)NCC(CCc1ccc(C(=O)NC(CCC(=O)O)C(=O)O)o1)C2 (stereo not shown)
Kd [1, 5]: 579 nM

SMILES: Nc1nc(O)c2c(n1)NCC(CCc1ccc(C(=O)NC(CCC(=O)O)C(=O)O)s1)C2 (stereo not shown)
Kd [1, 5]: 54.5 nM

SMILES: Nc1nc(O)c2c(n1)NCC(CCC1CCC(C(=O)NC(CCC(=O)O)C(=O)O)CC1)C2 (stereo not shown)
Kd [1, 5]: 57.8 nM

SMILES: C#CCN(Cc1ccc2[nH]c(N)nc(=O)c2c1)c1ccc(C(=O)NC(CCC(=O)O)C(=O)O)cc1 (stereo not shown)
Kd [1, 5]: 25.1 nM

SMILES: Cc1nc2ccc(CN(C)c3ccc(C(=O)NC(CCC(=O)O)C(=O)O)s3)cc2c(=O)[nH]1 (stereo not shown)
Kd [1, 5]: 534 nM

Kd ([1]; folate binding protein, read-out: Binding Constant (converted)): 4.08 nM
SMILES: Nc1nc2ncc(CNc3ccc(C(=O)N[C@@H](CCC(=O)O)C(=O)O)cc3)nc2c(=O)[nH]1 [Folic acid]

SMILES: Nc1nc2c(c(=O)[nH]1)CC(CCc1ccc(C(=O)N[C@@H](CCC(=O)O)C(=O)O)cc1)CN2 (stereo partly shown) [Lometrexol, 5,10-dideazatetrahydrofolic acid]
Toxicity (Mice Dead/Total Mice) ([2]; Lometrexol 0.0625 mg/kg i.p. once a day for five days, two weeks on folate-free diet): 0/10
Toxicity (Mice Dead/Total Mice) ([2]; Lometrexol 0.125 mg/kg i.p. once a day for five days, folate-free diet plus 0.0003% folate in drinking water): 0/10
Toxicity (Mice Dead/Total Mice) ([2]; Lometrexol 0.125 mg/kg i.p. once a day for five days, two weeks on folate-free diet): 0/10
Toxicity (Mice Dead/Total Mice) ([2]; Lometrexol 0.25 mg/kg i.p. once a day for five days, folate-free diet plus 0.0003% folate in drinking water): 0/10
Toxicity (Mice Dead/Total Mice) ([2]; Lometrexol 0.25 mg/kg i.p. once a day for five days, two weeks on folate-free diet): 0/10
Toxicity (Mice Dead/Total Mice) ([2]; Lometrexol 0.5 mg/kg i.p. once a day for five days, folate-free diet plus 0.0003% folate in drinking water): 0/10
Toxicity (Mice Dead/Total Mice) ([2]; Lometrexol 0.5 mg/kg i.p. once a day for five days, two weeks on folate-free diet): 0/10
Toxicity (Mice Dead/Total Mice) ([2]; Lometrexol 1.0 mg/kg i.p. once a day for five days, folate-free diet plus 0.0003% folate in drinking water): 0/10
Toxicity (Mice Dead/Total Mice) ([2]; Lometrexol 1.0 mg/kg i.p. once a day for five days, two weeks on folate-free diet): 8/10
Toxicity (Mice Dead/Total Mice) ([2]; Lometrexol 1.0 mg/kg i.p. once a day for five days, two weeks on folate-free diet, listed as lometrexol): lethal to the majority of the mice
Toxicity (Mice Dead/Total Mice) ([2]; Lometrexol 2.0 mg/kg i.p. once a day for five days, folate-free diet plus 0.0003% folate in drinking water): 0/10
Toxicity (Mice Dead/Total Mice) ([2]; Lometrexol 4.0 mg/kg i.p. once a day for five days, folate-free diet plus 0.0003% folate in drinking water): 4/10
Toxicity (Mice Dead/Total Mice) ([2]; Lometrexol 6.25 mg/kg i.p. once a day for five days, folate-free diet plus 0.003% folate in drinking water): 0/10
Toxicity (Mice Dead/Total Mice) ([2]; Lometrexol 12.5 mg/kg i.p. once a day for five days, folate-free diet plus 0.003% folate in drinking water): 0/10
Toxicity (Mice Dead/Total Mice) ([2]; Lometrexol 25 mg/kg i.p. once a day for five days, folate-free diet plus 0.003% folate in drinking water): 0/10
Toxicity (Mice Dead/Total Mice) ([2]; Lometrexol 50 mg/kg i.p. once a day for five days, folate-free diet plus 0.003% folate in drinking water): 0/10
clinical evidence of disease [3]: no clinical evidence of disease
Kd [1]: 21.9 nM
Antitumor Activity (% Inhibition) ([4]; Lometrexol 0.0625 mg/kg i.p. once a day for five days, two weeks on folate-free diet, assessed day ten): 0%
Antitumor Activity (% Inhibition) ([4]; Lometrexol 0.125 mg/kg i.p. once a day for five days, folate-free diet plus 0.0003% folate in drinking water, day ten): 13%
Antitumor Activity (% Inhibition) ([4]; Lometrexol 0.125 mg/kg i.p. once a day for five days, two weeks on folate-free diet, assessed day ten): 0%
Antitumor Activity (% Inhibition) ([4]; Lometrexol 0.25 mg/kg i.p. once a day for five days, folate-free diet plus 0.0003% folate in drinking water, day ten): 26%
Antitumor Activity (% Inhibition) ([4]; Lometrexol 0.25 mg/kg i.p. once a day for five days, two weeks on folate-free diet, assessed day ten): 21%
Antitumor Activity (% Inhibition) ([4]; Lometrexol 0.5 mg/kg i.p. once a day for five days, folate-free diet plus 0.0003% folate in drinking water, day ten): 48%
Antitumor Activity (% Inhibition) ([4]; Lometrexol 0.5 mg/kg i.p. once a day for five days, two weeks on folate-free diet, assessed day ten): 88%
Antitumor Activity (% Inhibition) ([4]; Lometrexol 1.0 mg/kg i.p. once a day for five days, folate-free diet plus 0.0003% folate in drinking water, day ten): 97%
Antitumor Activity (% Inhibition) ([4]; Lometrexol 1.0 mg/kg i.p. once a day for five days, two weeks on folate-free diet, assessed day ten): 100%
Antitumor Activity (% Inhibition) ([4]; Lometrexol 2.0 mg/kg i.p. once a day for five days, folate-free diet plus 0.0003% folate in drinking water, day ten): 98%
Antitumor Activity (% Inhibition) ([4]; Lometrexol 4.0 mg/kg i.p. once a day for five days, folate-free diet plus 0.0003% folate in drinking water, day ten): 99%
Antitumor Activity (% Inhibition) ([4]; Lometrexol 6.25 mg/kg i.p. once a day for five days, folate-free diet plus 0.003% folate in drinking water, day ten): 91%
Antitumor Activity (% Inhibition) ([4]; Lometrexol 12.5 mg/kg i.p. once a day for five days, folate-free diet plus 0.003% folate in drinking water, day ten): 89%
Antitumor Activity (% Inhibition) ([4]; Lometrexol 25 mg/kg i.p. once a day for five days, folate-free diet plus 0.003% folate in drinking water, day ten): 97%
Antitumor Activity (% Inhibition) ([4]; Lometrexol 50 mg/kg i.p. once a day for five days, folate-free diet plus 0.003% folate in drinking water, day ten): 96%

SMILES: Nc1nc(O)c2c(n1)NCC(CCCc1ccc(C(=O)NC(CCC(=O)O)C(=O)O)cc1)C2 (stereo not shown) [n = 3 X = H]
Kd [1]: 27.3 nM
